Source: patent publication US8552013B2, “Heterocyclic compounds based on N6-substituted adenine, methods of their preparation, their use for preparation of drugs, cosmetic preparations and growth regulators, pharmaceutical preparations, cosmetic preparations and growth regulators containing these compounds” (USTAV Experimentalni Botaniky Akademie Ved Ceske Republiky, priority 2001, dated 2013)
Several values for one entry are separate records, joined by “and”; a condition that tells them apart may be missing. Equal values may be shown once. Read-outs that look alike come from different tables or passages of the source.

Legend:
[1] = tested on: human diploid fibroblasts (HCA cells); assay: Senescence, beta-galactosidase staining of human diploid fibroblasts; assay type: cell-based; conditions: for SENESCENT CELLS (%) HCA25: passage 25; for SENESCENT CELLS (%) HCA45: passage 45; for SENESCENT CELLS (%) HCA80: passage 80
Summary of the method: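 HCA fibroblasts at passages 25, 45 and 80 were fixed for 5 min at room temperature in 2% formaldehyde/0.2% glutaraldehyde. They were then incubated at 37 °C without CO2 for 1 to 16 hours with X-gal 1 mg/ml, 5 mM ferri- and ferrocyanide and 2 mM MgCl2 in citric/phosphate buffer, pH 6.0. Blue-stained cells were scored.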

[2] = tested on: promyelocytic HL-60 leukemia; assay: Calcein AM cytotoxicity, HL60; assay type: cell-based, human; conditions: read-out: IC 50, HL60
Summary of the method: (§1)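 Cells in DMEM with 10% FCS, pre-incubated 24 h, then exposed to six 4-fold compound dilutions in duplicate for 72 h at 37 °C, 5% CO2. Viability read by Calcein AM fluorescence after 1 h further incubation.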

[3] = tested on: breast carcinoma cell line MCF-7; assay: Calcein AM cytotoxicity, MCF7; assay type: cell-based, human; conditions: read-out: IC 50, MCF7
Summary of the method: as §1

[4] = tested on: G-361; assay: Calcein AM cytotoxicity, G-361; assay type: cell-based; conditions: read-out: IC 50, G-361
[5] = tested on: K-562; assay: Calcein AM cytotoxicity, K-562; assay type: cell-based; conditions: read-out: IC 50, K-562
Summary of the method: as §1

[6] = tested on: B16-F0 melanoma; assay: Calcein AM cytotoxicity, B16-F0; assay type: cell-based; conditions: Mus musculus, B16F0, 72 h, read-out: IC 50, B16-F0
Summary of the method: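 Cells pre-incubated 24 hours, then exposed for 72 hours at 37° C. to six 4-fold compound dilutions in duplicate, top well concentration usually 266.7 μM. Viability read by Calcein AM fluorescence after 1 hour; GI50 taken from dose-response curves of survival relative to control wells.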

Fc1ccccc1CNc1ncnc2nc[nH]c12 [6-(2-fluorobenzylamino)purine]
SENESCENT CELLS (%) HCA25 [1]: 4% | SENESCENT CELLS (%) HCA45 [1]: 3% | SENESCENT CELLS (%) HCA80 [1]: 16% | IC50 ([2]; 72 hours, listed as 2F BAP): > 167 µM | IC50 ([3]; 72 hours, listed as 2F BAP): 109 µM and 128 µM | IC50 ([4]; 72 hours): 106 µM | IC50 ([5]; 72 hours): 136 µM and 70.7 µM

Cc1ccccc1CNc1ncnc2nc[nH]c12 [6-(2-methylbenzylamino)purine]
IC50 ([2]; Homo sapiens, HL-60, 72 h): > 167 µM | IC50 ([3]; Homo sapiens, MCF7, 72 h): > 167 µM | IC50 ([4]; Homo sapiens, G-361, 72 hours): > 167 µM | IC50 ([5]; Homo sapiens, K562, 72 h): 157 µM

Fc1cccc(CNc2ncnc3nc[nH]c23)c1 [6-(3-fluorobenzylamino)purine]
SENESCENT CELLS (%) HCA25 [1]: 3% | SENESCENT CELLS (%) HCA45 [1]: 3% | SENESCENT CELLS (%) HCA80 [1]: 15%

Ic1cccc(CNc2ncnc3nc[nH]c23)c1 [6-(3-iodobenzylamino)purine]
IC50 ([2]; Homo sapiens, HL-60, 72 h): 133 µM | IC50 ([3]; Homo sapiens, MCF7, 72 h): 130 µM | IC50 ([4]; Homo sapiens, G-361, 72 hours): > 167 µM | IC50 ([5]; Homo sapiens, K562, 72 h): 94.7 µM

COc1cccc(CNc2ncnc3nc[nH]c23)c1 [6-(3-methoxybenzylamino)purine]
IC50 [6]: 41.5 µM | IC50 ([3]; 72 hours, listed as 3MeO BAP): 150 µM

Cc1ccc(CNc2ncnc3nc[nH]c23)cc1 [6-(4-methylbenzylamino)purine]
IC50 ([2]; Homo sapiens, HL-60, 72 h): 88 µM | IC50 ([3]; Homo sapiens, MCF7, 72 h): 82.8 µM | IC50 ([4]; Homo sapiens, G-361, 72 hours): 160 µM | IC50 ([5]; Homo sapiens, K562, 72 h): 72.8 µM

Oc1cccc(CNc2ncnc3nc[nH]c23)c1 [meta-topolin, 6-(3-hydroxybenzylamino)purine]
SENESCENT CELLS (%) HCA25 [1]: 5% | SENESCENT CELLS (%) HCA45 [1]: 3% | SENESCENT CELLS (%) HCA80 [1]: 22% | IC50 [6]: 90.6 µM | IC50 ([5]; 72 hours, listed as MT): 140 µM

Oc1ccccc1CNc1ncnc2nc[nH]c12 [ortho-topolin, 6-(2-hydroxybenzylamino)purine]
SENESCENT CELLS (%) HCA25 [1]: 3% | SENESCENT CELLS (%) HCA45 [1]: 4% | SENESCENT CELLS (%) HCA80 [1]: 17% | IC50 [6]: 150 µM
